Consider 10 molecules from ChEMBL document CHEMBL4387737, “Synthesis of Isosteviol analogues as potential protective agents against Doxorubicin-induced cardiomyopathy in zebrafish embryos” (Bioorg Med Chem Lett, 2019).

Activity calls are given as the source filed them. The calls are words filed in the database; no cut-off is given here.

In data set [1] the test system is Danio rerio. In words: Cytoprotection in myl7:EGFP transgenic zebra fish embryo assessed as reduction in DOX-induced lethal toxicity by measuring LC50 dosed at 24 hpf and measured 96 hpf (reference value: 51.56 uM). The class given is functional.
The test system of data set [2] is Danio rerio. In words: Cardioprotective activity in myl7:EGFP transgenic zebra fish embryo assessed as decrease in DOX-induced cardiac dysfunction at 100 uM dosed at 24 hpf and measured 72 hpf by fluorescent microscopy. It is filed as functional, organism-based.
The subject of data set [3] is Danio rerio. In words: Cardioprotective activity in myl7:EGFP transgenic zebra fish embryo assessed as recovery of in DOX-induced heart rate impairment at 100 uM dosed at 24 hpf and measured 72 hpf by fluorescent microscopy. The class given is functional, organism-based.
Data set [4] is described as follows: Toxicity in myl7:EGFP transgenic zebra fish embryo assessed as reduction in survival rate at 25 to 100 uM dosed at 24 hpf and measured 96 hpf. It is filed as organism-based, Danio rerio. The settings on record: zebrafish, in vivo.
In data set [5] the test system is Danio rerio. In words: Cardioprotective activity in myl7:EGFP transgenic zebra fish embryo assessed as decrease in DOX-induced pericardial edema at 100 uM dosed at 24 hpf and measured 72 hpf by fluorescent microscopy. It is filed as functional, organism-based.
Data set [6] concerns Danio rerio. In words: Cardioprotective activity in myl7:EGFP transgenic zebra fish embryo assessed as decrease in DOX-induced morphological changes at 100 uM dosed at 24 hpf and measured 72 hpf by fluorescent microscopy. It is filed as functional, organism-based.
Data set [7] has as its system Danio rerio. In words: Cardioprotective activity in myl7:EGFP transgenic zebra fish embryo assessed as recovery of in DOX-induced shortening fraction at 100 uM dosed at 24 hpf and measured 72 hpf by fluorescent microscopy. It is filed as functional, organism-based.
Data set [8] is described as follows: Toxicity in myl7:EGFP transgenic zebra fish embryo assessed as reduction in survival rate dosed at 24 hpf and measured 96 hpf. It is filed as organism-based, Danio rerio. The settings on record: zebrafish, in vivo.

As to `C[C@@]12CC[C@@H]3[C@@](CC[C@H]4[C@@]3(C)CCC[C@@]4(C)C(=O)OCCO)(C[C@H]1O)C2`, the result with Danio rerio [1] was inactive.
In general, LC50 refers to the concentration lethal to half of the exposed cells or organisms. Turning to `C[C@]12CC[C@H]3[C@]4(C)CCC[C@@](C)(C(=O)O)[C@H]4CC[C@@]3(C1)[C@H](C(=O)O)[C@H]2O`, the outcome with Danio rerio [2], in the data set with Danio rerio [3], in the data set with Danio rerio [5], in the data set on Danio rerio [6] and with Danio rerio [7] was Active. For the same molecule, the Activity entry in data set [4] is given as “Non-Toxic”. In addition, the LC50 with Danio rerio [1] was 66.62 µM.
For the molecule `C[C@]12CC[C@H]3[C@]4(C)CCC[C@@](C)(C(=O)O)[C@H]4CC[C@@]3(C1)[C@H](CO)[C@H]2O`, the result in the data set with Danio rerio [2], in the data set with Danio rerio [3], with Danio rerio [5], in the data set on Danio rerio [6] and with Danio rerio [7] was Active. In addition, in data set [4], the Activity result is reported as “Non-Toxic”. Besides, in the data set on Danio rerio [1], the LC50 turned out to be 68.5 µM.
`C[C@]12CC[C@H]3[C@]4(C)CCC[C@@](C)(C(=O)O)[C@H]4CC[C@@]3(C1)[C@H](C=O)C2=O`: the result in the data set with Danio rerio [2], with Danio rerio [3], in the data set on Danio rerio [5], with Danio rerio [6] and in the data set with Danio rerio [7] was inactive. The Activity result in data set [4] is listed as “Non-Toxic”.
Regarding `C[C@@]12CC[C@@H]3[C@@](CC[C@H]4[C@@]3(C)CCC[C@@]4(C)C(=O)OCCCCCCO)(C[C@H]1O)C2`, the LD in data set [8] fell in the range of 50 to 100 µM. The outcome in the data set with Danio rerio [1] was inactive.
Take `C[C@@]12CC[C@@H]3[C@@](CC[C@H]4[C@@]3(C)CCC[C@@]4(C)C(=O)OCCCCCC(=O)O)(C[C@H]1O)C2`: the LD in data set [8] lay within 50 to 100 µM. Further, in the data set on Danio rerio [1], the result was inactive.
Turning to `C[C@]12CC[C@H]3[C@]4(C)CCC[C@@](C)(C(=O)O)[C@H]4CC[C@@]3(C1)[C@H](CO)C2=O`, the outcome in the data set with Danio rerio [2], in the data set on Danio rerio [3], with Danio rerio [5], in the data set with Danio rerio [6] and with Danio rerio [7] was inactive. The Activity entry in data set [4] is “Non-Toxic”. Moreover, the LC50 in the data set on Danio rerio [1] stood at 74.83 µM.
Turning to `C[C@@]12CC[C@@H]3[C@@](CC[C@H]4[C@@]3(C)CCC[C@@]4(C)C(=O)OCCCCCCCC(=O)O)(C[C@H]1O)C2`, the LD in data set [8] was in the range of 50 to 100 µM. In addition, the outcome in the data set on Danio rerio [1] was inactive.
For `C[C@@]12CC[C@@H]3[C@@](CC[C@H]4[C@@]3(C)CCC[C@@]4(C)C(=O)OCCCCCCCCO)(C[C@H]1O)C2`, in that order: 50 to 100 µM and “inactive”.
Consider `C[C@]12CC[C@H]3[C@]4(C)CCC[C@@](C)(C(=O)O)[C@H]4CC[C@@]3(C1)[C@H](C=O)[C@H]2O`, for which the result with Danio rerio [2], in the data set on Danio rerio [3], in the data set with Danio rerio [5], with Danio rerio [6] and in the data set on Danio rerio [7] was Active. The Activity entry in data set [4] is listed as “Non-Toxic”. In addition, in the data set on Danio rerio [1], the LC50 amounted to 92.61 µM.
